Measured values published in publication PMC6839509, “Fluorescent probes towards selective cathepsin B detection and visualization in cancer cells and patient samples” (Chemical Science, 2019).
“And” between values parts separate entries of the source, which are not always exact repeats. Equal entries are not always repeated. Square brackets hold non-standard residues; d marks the D form. * marks the point of attachment. Phe(4-Cl) = N[C@@H](Cc1ccc(Cl)cc1)C(=O)O; ACC = NC(=O)Cc1cc(=O)oc2cc(N*)ccc12; hTyr = N[C@@H](CCc1ccc(O)cc1)C(=O)O; hPhe = N[C@@H](CCc1ccccc1)C(=O)O; Cha = N[C@@H](CC1CCCCC1)C(=O)O; AMC = Cc1cc(=O)oc2cc(N*)ccc12; hLeu = CC(C)CC[C@H](N)C(=O)O; hSer = N[C@@H](CCO)C(=O)O; Nle = CCCC[C@H](N)C(=O)O; Nva = CCC[C@H](N)C(=O)O; Cbz = O=C(OCc1ccccc1)*; OBn = c1ccc(CO*)cc1; Bn = c1ccc(C*)cc1

Columns and labels:
[1] = molecular target: T1, cathepsin B in human cancer cell lines (Homo sapiens, UniProt P07858); test: Detection of active cathepsin B in cancer cells using Cy5-labeled MP-CB-2 probe (SDS-PAGE, Western blot); type: cell-based; details: A-431 cells; E-64d 25 μM; 1 μM MP-CB-2
T1 construct: we were able to label both cathepsin B active forms (single chain 29 kDa, and light chain 6 kDa); endogenous in cells; host or cells: human cancer cell lines (A-431, HCT-116, OVCAR-5, SK-OV-3, MDA-MB-231, U2-OS, PC-3, HeLa and others)
Protocol: 50 000 cells from fourteen adherent cancer cell lines were seeded into 12-well plates and allowed to attach overnight. In parallel, 50 000 cells from four non-adherent cancer cell lines were placed into 12-well plates and cultured overnight. The next day, MP-CB-2 ABP was added to the cells (1 μM final concentration) and incubated for various times (1, 4, 8, 24 hours). Next, cells were harvested, centrifuged at 500 × g for 5 min, cell pellets were washed with 1× DPBS, cells were centrifuged again at 500 × g for 5 min, and the supernatant was discarded. Finally, cell pellets were solubilized in 100 μL of 1× SDS/DTT and boiled for 5 min, cooled to room temperature and sonicated. Each sample (30 μL) was then subjected to SDS-PAGE analysis (4–12% Bis–Tris Plus 10-well gels, 200 V, 30 min), followed by protein transfer onto the membrane (0.2 μm nitrocellulose membrane, 10 V, 60 min). Ponceau S staining verified equal loading and transfer of proteins. Membranes were blocked in 2.5% BSA in TBS-T for 1 hour at room temperature. […] The images were then analyzed with the Image Studio software.
50 000 of selected cancer cells (A-431, HCT-116, OVCAR-5, SK-OV-3, MDA-MB-231, U2-OS, and PC-3) were seeded into 12-well plates and allowed to attach overnight. […] All images were analyzed with Image Studio software.

[2] = molecular target: T2, human recombinant cathepsin K (Homo sapiens, UniProt P43235); test: Substrate hydrolysis kinetics (kcat, KM, kcat/KM) of ACC-labeled substrates; type: biochemical; details: pH 5.5, 37 °C, S.D. below 15%; for kcat/KM Cat K: cathepsin K 320 nM, Michaelis–Menten, average of at least triplicate; for kcat Cat K / Km: four independent experiments; for Km: read-out: KM Cat K
T2 construct: with a 100 nM final concentration of each active cathepsin for 30 min; made in house
T2 sequence (P43235 115-329): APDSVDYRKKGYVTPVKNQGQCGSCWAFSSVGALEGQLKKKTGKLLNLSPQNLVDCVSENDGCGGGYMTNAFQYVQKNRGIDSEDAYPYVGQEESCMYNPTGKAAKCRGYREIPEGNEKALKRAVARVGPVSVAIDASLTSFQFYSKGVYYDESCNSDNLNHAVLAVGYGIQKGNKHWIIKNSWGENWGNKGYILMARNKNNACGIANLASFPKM
Protocol: (§1) All kinetic experiments were performed using a CLARIOStar (BMG LABTECH) plate reader operating in fluorescence kinetic mode using 96-well plates (Corning®, Costar®). ACC-labeled fluorescent substrates were screened at 355 nm (excitation) and 460 nm (emission) wavelengths (gain 650). The cathepsin assay buffer was composed of 100 mM sodium acetate, 100 mM sodium chloride, 10 mM DTT, 1 mM EDTA, pH 5.5. All kinetic studies were performed at 37 °C.
(§2) The kinetic parameters for all ACC-labeled substrates were determined using Michaelis–Menten kinetic according to the protocol described by Poreba et al.[41] […] All experiments were performed at least in triplicate and the results are presented as average values (S.D. for all tested substrates was below 15%).

[3] = molecular target: T3, human recombinant cathepsin S (Homo sapiens, UniProt P25774); test: as above; type: biochemical; details: pH 5.5, 37 °C, S.D. below 15%; for kcat/KM Cat S: cathepsin S 150 nM, Michaelis–Menten, average of at least triplicate; for kcat Cat S / Km: four independent experiments; for Km: read-out: KM Cat S
T3 construct: with a 100 nM final concentration of each active cathepsin for 30 min; made in house
T3 sequence (P25774 115-331): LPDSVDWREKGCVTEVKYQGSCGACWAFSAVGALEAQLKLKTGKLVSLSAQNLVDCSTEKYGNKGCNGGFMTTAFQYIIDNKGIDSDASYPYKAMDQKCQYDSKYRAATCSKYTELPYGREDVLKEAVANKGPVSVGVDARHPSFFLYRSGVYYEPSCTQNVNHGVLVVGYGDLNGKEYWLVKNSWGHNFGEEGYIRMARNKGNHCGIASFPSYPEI
Protocol: as §1, §2

[4] = molecular target: T4, human recombinant cathepsin V (Homo sapiens, UniProt O60911); test: as above; type: biochemical; details: pH 5.5, 37 °C, S.D. below 15%; for kcat/KM Cat V: cathepsin V 200 nM, Michaelis–Menten, average of at least triplicate; for kcat Cat V / Km: four independent experiments; for Km: read-out: KM Cat V
T4 construct: with a 100 nM final concentration of each active cathepsin for 30 min; made in house
T4 sequence (O60911 114-334): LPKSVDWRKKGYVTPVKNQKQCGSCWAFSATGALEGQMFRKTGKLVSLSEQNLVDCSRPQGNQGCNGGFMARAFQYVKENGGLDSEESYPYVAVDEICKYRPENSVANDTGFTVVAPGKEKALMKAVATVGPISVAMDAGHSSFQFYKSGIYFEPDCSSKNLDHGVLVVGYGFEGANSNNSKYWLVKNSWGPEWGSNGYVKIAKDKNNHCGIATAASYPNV
Protocol: as §1, §2

[5] = molecular target: T5, human recombinant cathepsin B (Homo sapiens, UniProt P07858); test: as above; type: biochemical; details: for kcat/KM Cat B: cathepsin B 0.3–0.5 nM, 100 mM sodium acetate, 100 mM NaCl, 10 mM DTT, 1 mM EDTA, Michaelis–Menten, average of at least triplicate; for kcat/KM Cat B / kcat Cat B / Km: pH 5.5, 37 °C, S.D. below 15%; for kcat Cat B / Km: four independent experiments; for Km: read-out: KM Cat B
T5 construct: made in house
Protocol: as §1, §2

[6] = molecular target: T6, human recombinant cathepsin L (Homo sapiens, UniProt P07711); test: as above; type: biochemical; details: pH 5.5, 37 °C, S.D. below 15%; for kcat/KM Cat L: cathepsin L 250 nM, Michaelis–Menten, average of at least triplicate; for kcat Cat L / Km: four independent experiments; for Km: read-out: KM Cat L
T6 construct: with a 100 nM final concentration of each active cathepsin for 30 min; made in house
T6 sequence (P07711 114-333): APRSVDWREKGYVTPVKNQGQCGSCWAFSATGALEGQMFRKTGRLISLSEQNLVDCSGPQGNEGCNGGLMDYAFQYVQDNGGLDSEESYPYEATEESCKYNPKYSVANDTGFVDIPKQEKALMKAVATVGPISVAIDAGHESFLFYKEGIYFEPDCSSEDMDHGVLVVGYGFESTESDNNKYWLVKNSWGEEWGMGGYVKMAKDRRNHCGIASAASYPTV
Protocol: as §1, §2

| Compound | kcat/KM Cat K [2] | kcat/KM Cat S [3] | kcat/KM Cat V [4] | kcat/KM Cat B [5] | kcat/KM Cat L [6] | also measured |
| --- | --- | --- | --- | --- | --- | --- |
| CCOC(=O)[C@H]1O[C@@H]1C(=O)N[C@@H](CC(C)C)C(=O)NCCC(C)C [E-64d] |  |  |  |  |  | prevention of cathepsin B labeling by MP-CB-2 on pre-incubation with inhibitor [1]: completely prevented |
| Ac-[Cha]LE(OBn)R-{ACC} (SMILES CC(=O)N[C@@H](CC1CCCCC1)C(=O)N[C@@H](CC(C)C)C(=O)N[C@@H](CCC(=O)OCc1ccccc1)C(=O)N[C@@H](CCCNC(=N)N)C(=O)Nc1ccc2c(CC(N)=O)cc(=O)oc2c1) | 14 M⁻¹ s⁻¹ | 40 M⁻¹ s⁻¹ | 949 M⁻¹ s⁻¹ | 3,100,000 M^-1s^-1 | 744 M⁻¹ s⁻¹ | kcat Cat K [2]: < 0.007 s⁻¹; Km [2]: > 500 µM; kcat Cat S [3]: < 0.020 s⁻¹; Km [3]: > 500 µM; kcat Cat V [4]: 0.034 s⁻¹; Km [4]: 35.1 µM; selectivity for cathepsin B in comparison with cathepsin S ([5]; from kcat/KM): ~60 000 fold; kcat Cat B [5]: 344 s⁻¹; Km [5]: 115 µM; kcat Cat L [6]: 0.062 s⁻¹; Km [6]: 83.5 µM |
| Ac-[Cha]L[hSer](Bn)R-{ACC} (SMILES CC(=O)N[C@@H](CC1CCCCC1)C(=O)N[C@@H](CC(C)C)C(=O)N[C@@H](CCOCc1ccccc1)C(=O)N[C@@H](CCCNC(=N)N)C(=O)Nc1ccc2c(CC(N)=O)cc(=O)oc2c1) [ACC-labeled tetrapeptide substrate] | 14 M⁻¹ s⁻¹ | 44 M⁻¹ s⁻¹ | 518 M⁻¹ s⁻¹ | 4,300,000 M^-1s^-1 | 1,040 M^-1s^-1 | kcat Cat K [2]: < 0.007 s⁻¹; Km [2]: > 500 µM; kcat Cat S [3]: < 0.022 s⁻¹; Km [3]: > 500 µM; kcat Cat V [4]: 0.055 s⁻¹; Km [4]: 109 µM; kcat Cat B [5]: 390 s⁻¹; Km [5]: 90.9 µM; kcat Cat L [6]: 0.109 s⁻¹; Km [6]: 105 µM |
| Ac-[Nva][Cha]E(OBn)R-{ACC} (SMILES CCC[C@H](NC(C)=O)C(=O)N[C@@H](CC1CCCCC1)C(=O)N[C@@H](CCC(=O)OCc1ccccc1)C(=O)N[C@@H](CCCNC(=N)N)C(=O)Nc1ccc2c(CC(N)=O)cc(=O)oc2c1) [ACC-labeled tetrapeptide substrate] | 30 M⁻¹ s⁻¹ | 37 M⁻¹ s⁻¹ | 1,420 M^-1s^-1 | 4,090,000 M^-1s^-1 | 1,140 M^-1s^-1 |  |
| Ac-[Phe(4-Cl)]L[hSer](Bn)R-{ACC} (SMILES CC(=O)N[C@@H](Cc1ccc(Cl)cc1)C(=O)N[C@@H](CC(C)C)C(=O)N[C@@H](CCOCc1ccccc1)C(=O)N[C@@H](CCCNC(=N)N)C(=O)Nc1ccc2c(CC(N)=O)cc(=O)oc2c1) [ACC-labeled tetrapeptide substrate] | 12 M⁻¹ s⁻¹ | 50 M⁻¹ s⁻¹ | 570 M⁻¹ s⁻¹ | 3,780,000 M^-1s^-1 | 1,540 M^-1s^-1 |  |
| Ac-[hLeu][Nle]E(OBn)R-{ACC} (SMILES CCCC[C@H](NC(=O)[C@H](CCC(C)C)NC(C)=O)C(=O)N[C@@H](CCC(=O)OCc1ccccc1)C(=O)N[C@@H](CCCNC(=N)N)C(=O)Nc1ccc2c(CC(N)=O)cc(=O)oc2c1) [ACC-labeled tetrapeptide substrate] | 17 M⁻¹ s⁻¹ | 96 M⁻¹ s⁻¹ | 1,180 M^-1s^-1 | 3,450,000 M^-1s^-1 | 1,090 M^-1s^-1 |  |
| Ac-[hLeu][Nle][hSer](Bn)R-{ACC} (SMILES CCCC[C@H](NC(=O)[C@H](CCC(C)C)NC(C)=O)C(=O)N[C@@H](CCOCc1ccccc1)C(=O)N[C@@H](CCCNC(=N)N)C(=O)Nc1ccc2c(CC(N)=O)cc(=O)oc2c1) [ACC-labeled tetrapeptide substrate] | 16 M⁻¹ s⁻¹ and 19 M⁻¹ s⁻¹ | 65 M⁻¹ s⁻¹ and 39 M⁻¹ s⁻¹ |  |  |  |  |
| Ac-[hPhe]LE(OBn)R-{ACC} (SMILES CC(=O)N[C@@H](CCc1ccccc1)C(=O)N[C@@H](CC(C)C)C(=O)N[C@@H](CCC(=O)OCc1ccccc1)C(=O)N[C@@H](CCCNC(=N)N)C(=O)Nc1ccc2c(CC(N)=O)cc(=O)oc2c1) [ACC-labeled tetrapeptide substrate] | 12 M⁻¹ s⁻¹ | 37 M⁻¹ s⁻¹ | 829 M⁻¹ s⁻¹ | 2,100,000 M^-1s^-1 | 726 M⁻¹ s⁻¹ |  |
| Ac-[hTyr]LE(OBn)R-{ACC} (SMILES CC(=O)N[C@@H](CCc1ccc(O)cc1)C(=O)N[C@@H](CC(C)C)C(=O)N[C@@H](CCC(=O)OCc1ccccc1)C(=O)N[C@@H](CCCNC(=N)N)C(=O)Nc1ccc2c(CC(N)=O)cc(=O)oc2c1) [ACC-labeled tetrapeptide substrate] | 14 M⁻¹ s⁻¹ | 41 M⁻¹ s⁻¹ | 692 M⁻¹ s⁻¹ | 2,760,000 M^-1s^-1 | 1,170 M^-1s^-1 |  |
| Ac-hLeu-Nle-Glu(Chx)-Arg-ACC [ACC-labeled tetrapeptide substrate] | 11 M⁻¹ s⁻¹ | 25 M⁻¹ s⁻¹ | 1,310 M^-1s^-1 | 2,600,000 M^-1s^-1 | 769 M⁻¹ s⁻¹ |  |
| Cbz-Arg-Arg-{AMC} [reference compound] |  |  |  |  |  | selectivity for cathepsin B over cathepsin L ([5]; from kcat/KM): 17 fold |
